Laboratory results as given in patent publication US20230085307A1, “PYRIDAZINONE COMPOUND AND HERBICIDE” (NISSAN CHEMICAL CORPORATION, priority 2019, published 2023).

Experiments:
late watergrass [1] = experiment: Test Example 2: herbicidal activity, application during weed generation under submerged conditions (Table 17, symbol A); assay type: in vivo, late watergrass (Echinochloa oryzicola); settings: AAH 320 g/ha; application during weed generation, submerged conditions
In short: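 Herbicide emulsion, diluted with water to the chosen amount, is applied onto 4 cm floodwater over alluvial soil where the weeds were co-sown and raised at 25–30° C. Application timing: 1–2 leaves. Assessment: three weeks afterwards.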

Italian ryegrass [2] = experiment: Test Example 4: herbicidal effect by soil treatment (Table 19, symbol K); assay type: in vivo, Italian ryegrass (Lolium multiflorum); settings: 320 g/ha
In short: (§1)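 Herbicidal effect was rated 3 weeks after treatment, using the scoring criteria of an earlier test. The compound, formulated as an emulsion and diluted in water to a set herbicide amount, had been sprayed uniformly on soil over freshly sown seeds. Growth took place in a greenhouse at 25° C. to 30° C.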

southern crabgrass = experiment: Test Example 4: herbicidal effect by soil treatment (Table 19, symbol F); assay type: in vivo, southern crabgrass (Digitaria ciliaris); settings: 320 g/ha
In short: as §1

velvetleaf = experiment: Test Example 5: herbicidal effect by foliage application, plastic box (Table 20, symbol M); assay type: in vivo, velvetleaf (Abutilon theophrasti); settings: foliage application, 320 g/ha, evaluated three weeks after application
In short: (§2)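 Foliar spray test: emulsion formulation diluted in water to a set application rate, sprayed onto 14-day-old plants raised in diluvial soil at 25° C to 30° C under glass. Both herbicidal effect and crop effect rated visually three weeks later.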

Italian ryegrass [3] = experiment: Test Example 5: herbicidal effect by foliage application, plastic box (Table 20, symbol K); assay type: in vivo, Italian ryegrass (Lolium multiflorum); settings: foliage application, 320 g/ha, evaluated three weeks after application
In short: as §2

chickweed = experiment: Test Example 4: herbicidal effect by soil treatment (Table 19, symbol P); assay type: in vivo, common chickweed (Stellaria media); settings: 320 g/ha
In short: as §1

rice flat sedge = experiment: Test Example 3: herbicidal effect by foliage application, Wagner pot (Table 18, symbol E); assay type: in vivo, rice flat sedge (Cyperus iria); settings: 320 g/ha
In short: (§3)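 Plants were sown in alluvial soil held under 0.1–0.5 cm standing water and grown 14 days in a greenhouse at 25–30 °C. An emulsifiable formulation, water-diluted to the set dose, was then sprayed onto the foliage, and effects were scored three weeks later using previously defined criteria.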

Japanese bulrush = experiment: Test Example 1: herbicidal activity, application before weed generation under submerged conditions (Table 16, symbol B); assay type: in vivo, Japanese bulrush (Schoenoplectus juncoides); settings: 320 g/ha applied herbicide
In short: (§4)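 Submerged Wagner pots (alluvial soil, 4 cm water) sown with weed seeds and planted with 2.5-leaf rice seedlings; emulsifiable concentrate diluted in water applied to water surface on sowing day. Held in greenhouse at 25-30 °C; injury scored 0-5 by herbicidal rate after three weeks.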

barnyard grass = experiment: Test Example 5: herbicidal effect by foliage application, plastic box (Table 20, symbol H); assay type: in vivo, barnyard grass (Echinochloa crus-galli); settings: foliage application, 320 g/ha, evaluated three weeks after application
In short: as §2

green foxtail = experiment: Test Example 5: herbicidal effect by foliage application, plastic box (Table 20, symbol G); assay type: in vivo, green foxtail (Setaria viridis); settings: foliage application, 320 g/ha, evaluated three weeks after application
In short: as §2

lambsquarters = experiment: Test Example 4: herbicidal effect by soil treatment (Table 19, symbol O); assay type: in vivo, lambsquarters (Chenopodium album); settings: 320 g/ha
In short: as §1

wild oat [4] = experiment: Test Example 5: herbicidal effect by foliage application, plastic box (Table 20, symbol I); assay type: in vivo, wild oat (Avena fatua); settings: foliage application, 320 g/ha, evaluated three weeks after application
In short: as §2

blackgrass = experiment: Test Example 5: herbicidal effect by foliage application, plastic box (Table 20, symbol J); assay type: in vivo, blackgrass (Alopecurus myosuroides); settings: foliage application, 320 g/ha, evaluated three weeks after application
In short: as §2

Chinese sprangletop = experiment: Test Example 3: herbicidal effect by foliage application, Wagner pot (Table 18, symbol D); assay type: in vivo, chinese sprangletop (Leptochloa chinensis); settings: 320 g/ha
In short: as §3

wild oat [5] = experiment: Test Example 4: herbicidal effect by soil treatment (Table 19, symbol I); assay type: in vivo, wild oat (Avena fatua); settings: 320 g/ha
In short: as §1

windgrass = experiment: Test Example 4: herbicidal effect by soil treatment (Table 19, symbol L); assay type: in vivo, windgrass (Apera spica-venti); settings: 320 g/ha
In short: as §1

late watergrass [6] = experiment: Test Example 1: herbicidal activity, application before weed generation under submerged conditions (Table 16, symbol A); assay type: in vivo, late watergrass (Echinochloa oryzicola); settings: 320 g/ha applied herbicide
In short: as §4

Row | SMILES | herbicidal effect rating, A: late watergrass (late watergrass [1]) | herbicidal effect rating, K: Italian ryegrass (Italian ryegrass [2]) | herbicidal effect rating, F: southern crabgrass (southern crabgrass) | herbicidal effect on M: velvetleaf (velvetleaf) | herbicidal effect on K: Italian ryegrass (Italian ryegrass [3]) | herbicidal effect rating, P: chickweed (chickweed) | herbicidal effect on E (rice flat sedge), rating 0-5 (rice flat sedge) | Herbicidal effect on B: Japanese bulrush (grade 0-5) (Japanese bulrush) | herbicidal effect on H: barnyard grass (barnyard grass) | herbicidal effect on G: green foxtail (green foxtail) | herbicidal effect rating, O: lambsquarters (lambsquarters) | herbicidal effect on I: wild oat (wild oat [4]) | herbicidal effect on J: blackgrass (blackgrass) | herbicidal effect on D (Chinese sprangletop), rating 0-5 (Chinese sprangletop) | herbicidal effect rating, I: wild oat (wild oat [5]) | herbicidal effect rating, L: windgrass (windgrass) | Herbicidal effect on A: late watergrass (grade 0-5) (late watergrass [6])
1 | C=CCOc1ccc(-c2sc3ccc(F)cc3c2-c2c(O)c(C)nn(C)c2=O)cc1 [2-051] | 0 (Herbicidal rate of 5% or less (almost no effect)) | 0 (Herbicidal rate of 5% or less (almost no effect)) | 5 (Herbicidal rate of 90% or more (almost completely withered)) | 4 (Herbicidal rate of 70% or more and less than 90%) | 4 (Herbicidal rate of 70% or more and less than 90%) | 1 (Herbicidal rate of 5% or more and less than 20%) | 5 (Herbicidal rate of 90% or more (almost completely withered)) | 4 (Herbicidal rate of 70% or more and less than 90%) | 5 (Herbicidal rate of 90% or more (almost completely withered)) | 5 (Herbicidal rate of 90% or more (almost completely withered)) | 5 (Herbicidal rate of 90% or more (almost completely withered)) | 4 (Herbicidal rate of 70% or more and less than 90%) | 5 (Herbicidal rate of 90% or more (almost completely withered)) | 5 (Herbicidal rate of 90% or more (almost completely withered)) | 0 (Herbicidal rate of 5% or less (almost no effect)) | 3 (Herbicidal rate of 40% or more and less than 70%) | 3 (Herbicidal rate of 40% or more and less than 70%)
2 | C#CCOc1ccc(-c2sc3ccc(F)cc3c2-c2c(O)c(C)nn(C)c2=O)cc1 [2-053] | 0 (Herbicidal rate of 5% or less (almost no effect)) | 0 (Herbicidal rate of 5% or less (almost no effect)) | 0 (Herbicidal rate of 5% or less (almost no effect)) | 5 (Herbicidal rate of 90% or more (almost completely withered)) | 5 (Herbicidal rate of 90% or more (almost completely withered)) | 1 (Herbicidal rate of 5% or more and less than 20%) | 4 (Herbicidal rate of 70% or more and less than 90%) | 3 (Herbicidal rate of 40% or more and less than 70%) | 5 (Herbicidal rate of 90% or more (almost completely withered)) | 5 (Herbicidal rate of 90% or more (almost completely withered)) | 3 (Herbicidal rate of 40% or more and less than 70%) | 2 (Herbicidal rate of 20% or more and less than 40%) | 4 (Herbicidal rate of 70% or more and less than 90%) | 5 (Herbicidal rate of 90% or more (almost completely withered)) | 0 (Herbicidal rate of 5% or less (almost no effect)) | 0 (Herbicidal rate of 5% or less (almost no effect)) | 2 (Herbicidal rate of 20% or more and less than 40%)
3 | CSc1ccc(-c2sc3ccc(F)cc3c2-c2c(O)c(C)nn(C)c2=O)cc1 [2-076] | 2 (Herbicidal rate of 20% or more and less than 40%) | 4 (Herbicidal rate of 70% or more and less than 90%) | 3 (Herbicidal rate of 40% or more and less than 70%) | 5 (Herbicidal rate of 90% or more (almost completely withered)) | 4 (Herbicidal rate of 70% or more and less than 90%) | 4 (Herbicidal rate of 70% or more and less than 90%) | 5 (Herbicidal rate of 90% or more (almost completely withered)) | 0 (Herbicidal rate of 5% or less (almost no effect)) | 5 (Herbicidal rate of 90% or more (almost completely withered)) | 5 (Herbicidal rate of 90% or more (almost completely withered)) | 3 (Herbicidal rate of 40% or more and less than 70%) | 5 (Herbicidal rate of 90% or more (almost completely withered)) | 4 (Herbicidal rate of 70% or more and less than 90%) | 5 (Herbicidal rate of 90% or more (almost completely withered)) | 0 (Herbicidal rate of 5% or less (almost no effect)) | 4 (Herbicidal rate of 70% or more and less than 90%) | 3 (Herbicidal rate of 40% or more and less than 70%)
4 | CCCC(=O)Oc1c(C)nn(C)c(=O)c1-c1c(-c2ccc(SC)cc2)sc2ccc(F)cc12 [2-077] | 4 (Herbicidal rate of 70% or more and less than 90%) | 3 (Herbicidal rate of 40% or more and less than 70%) | 2 (Herbicidal rate of 20% or more and less than 40%) | 5 (Herbicidal rate of 90% or more (almost completely withered)) | 5 (Herbicidal rate of 90% or more (almost completely withered)) | 5 (Herbicidal rate of 90% or more (almost completely withered)) | 5 (Herbicidal rate of 90% or more (almost completely withered)) | 4 (Herbicidal rate of 70% or more and less than 90%) | 5 (Herbicidal rate of 90% or more (almost completely withered)) | 5 (Herbicidal rate of 90% or more (almost completely withered)) | 5 (Herbicidal rate of 90% or more (almost completely withered)) | 5 (Herbicidal rate of 90% or more (almost completely withered)) | 4 (Herbicidal rate of 70% or more and less than 90%) | 5 (Herbicidal rate of 90% or more (almost completely withered)) | 2 (Herbicidal rate of 20% or more and less than 40%) | 3 (Herbicidal rate of 40% or more and less than 70%) | 3 (Herbicidal rate of 40% or more and less than 70%)
5 | CON=C(C)c1ccc(-c2sc3ccc(F)cc3c2-c2c(O)c(C)nn(C)c2=O)cc1 [2-079] | 0 (Herbicidal rate of 5% or less (almost no effect)) | 4 (Herbicidal rate of 70% or more and less than 90%) | 5 (Herbicidal rate of 90% or more (almost completely withered)) | 5 (Herbicidal rate of 90% or more (almost completely withered)) | 5 (Herbicidal rate of 90% or more (almost completely withered)) | 2 (Herbicidal rate of 20% or more and less than 40%) | 5 (Herbicidal rate of 90% or more (almost completely withered)) | 3 (Herbicidal rate of 40% or more and less than 70%) | 5 (Herbicidal rate of 90% or more (almost completely withered)) | 5 (Herbicidal rate of 90% or more (almost completely withered)) | 5 (Herbicidal rate of 90% or more (almost completely withered)) | 5 (Herbicidal rate of 90% or more (almost completely withered)) | 3 (Herbicidal rate of 40% or more and less than 70%) | 4 (Herbicidal rate of 70% or more and less than 90%) | 0 (Herbicidal rate of 5% or less (almost no effect)) | 0 (Herbicidal rate of 5% or less (almost no effect)) | 1 (Herbicidal rate of 5% or more and less than 20%)
